8 compounds from PubChem BioAssay (NCI) can be followed below.

Experiment in all cases: growth of human tumour cells (NCI), 48 h
Test [1] deals with HS 578T breast.
The subject of test [2] is M14 melanoma.
Test [3] has as its system DU-145 prostate.
In test [4] the test system is K-562 leukemia.
For test [5], the system named is SR leukemia.
The subject of test [6] is SK-MEL-5 melanoma.
Test [7] relates to HCT-15 colon.
In test [8] the test system is MOLT-4 leukemia.
Test [9] concerns SNB-75 CNS.
The subject of test [10] is EKVX NSCLC.
Test [11] concerns SF-295 CNS.
For test [12], the system named is U251 CNS.
For test [13], the system named is LOX IMVI melanoma.
Test [14] deals with HCC-2998 colon.
The test system of test [15] is NCI-H522 lung.
The subject of test [16] is NCI/ADR-RES ovarian.
Test [17] relates to SN12C renal.
In test [18] the test system is UACC-62 melanoma.
For test [19], the system named is PC-3 prostate.

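1) Cells in 96-well plates. 2) Compound, 48 h, 5 concentrations. 3) Linear interpolation between surrounding doses. 4) Unreached endpoint = highest concentration. TGI: total growth inhibition.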

With `CCOC(=O)CCC(NC(=O)c1ccc(Nc2cnc3cc(C(F)(F)F)ccc3n2)cc1)C(=O)OCC` (stereo unspecified), the TGI in test [1] was 47.7 µM; in [2], over 100 µM; in [3] it was over 100 µM; in test [4], over 100 µM; in test [5], over 100 µM; in test [6] it was over 100 µM. In addition, the TGI in [7] was over 100 µM; in test [8] it was over 100 µM; in test [9], 5.91 µM; in [10], over 100 µM; in [11], 26 µM; in test [12], 15.3 µM. The TGI in test [13], in test [14], in [15], in [16] and in test [17] was over 100 µM throughout.
With `Cc1ccc(/C=N/Nc2cc(C)c3ccccc3n2)s1`, the TGI was over 100 µM in [1]; 42.8 µM in test [2]; 39.2 µM in test [4]; over 100 µM in test [5]; 75.2 µM in [6]; 25.6 µM in [7]. Also, the TGI is 45.1 µM in test [8]; over 100 µM in test [9]; 27 µM in test [10]; 32 µM in test [11]; 43 µM in test [12]; over 100 µM in [18]. Besides, the TGI in [13] was found to be 78.9 µM; in test [14], 33.8 µM; in test [19], 31.1 µM; in test [16], 90.6 µM; in [17], 41.1 µM.
With `OC12CC3c4ccccc4NC3C3Oc4cccc5c4C31CCN(CC1CC1)C2C5` (stereo unspecified), the TGI was 46.3 µM in test [1]; 33.8 µM in test [2]; 36.5 µM in test [3]; 52.6 µM in [4]; 59 µM in test [5]; 31.5 µM in test [6]. In addition, the TGI in test [7] was 35.1 µM; in [8], 73.1 µM; in [9], 31.5 µM; in [10], 87.7 µM; in [11] it was 94.1 µM; in test [12] it was 31.1 µM. The TGI in test [18] amounted to 33.3 µM; in [13], 30 µM; in [19], 32.1 µM; in [15], 39.7 µM; in test [16] it was 47.4 µM; in test [17] it was 34.4 µM.
In the case of `COC(=O)CCCC(=O)NC1=C(Nc2ccccc2)C(=O)c2ccccc2C1=O`, the TGI in [1] is 84.4 µM; in test [2], 29.6 µM; in [3], 29.4 µM; in [4] it was 47.3 µM; in test [5], over 100 µM; in [7], 41.1 µM. For the same compound, the TGI is 45.5 µM in test [8]; 33.8 µM in [9]; 49.7 µM in test [10]; 33 µM in test [11]; 29.3 µM in test [12]; 11.9 µM in test [18]. Besides, the TGI stood at 41.6 µM in test [13]; 29.5 µM in [14]; 35.3 µM in test [15]; 56 µM in test [16]; 45.1 µM in test [17].
On to `COc1cc(/C=C2\N=C(c3ccccc3)N(c3nc4cc(C)c(C)cc4s3)C2=O)cc(OC)c1OC`, for which the TGI was 98 µM in test [1]; over 100 µM in test [2]; over 100 µM in test [3]; over 100 µM in test [4]; 53.1 µM in test [5]; over 100 µM in test [6]. Also, the TGI in test [7] is over 100 µM; in test [8], 30.3 µM; in [9], 60 µM; in test [10], 70.7 µM; in test [11] it was over 100 µM; in [12] it was 66.1 µM. Further, the TGI in [18] was over 100 µM; in [13] it was 68.7 µM; in test [14] it was 45.7 µM; in test [19], over 100 µM; in test [16] it was over 100 µM; in test [17], 99.1 µM.
In the case of `CC(=O)/C=C(/C=N/O)c1ccccc1`, the TGI in test [1], in test [2], in test [4], in test [5], in test [6] and in [7] was over 100 µM in each case. The TGI in test [8], in test [9], in [10], in test [11], in test [12] and in test [18] was over 100 µM throughout. The TGI in [13], in [14], in [19], in test [15], in test [16] and in test [17] was over 100 µM in each case.
Consider `c1ccc(CN2CCCN3CCN(CCCN(Cc4ccccc4)CC3)CC2)cc1`, for which the TGI is over 100 µM in test [1]; over 100 µM in [2]; over 100 µM in test [3]; over 100 µM in test [4]; over 100 µM in test [5]; 36.1 µM in test [6]. For the same compound, the TGI in test [7], in [8], in test [9], in test [10], in test [11] and in test [12] was over 100 µM each time. In addition, the TGI in test [18], in test [13], in [19], in test [15], in test [16] and in [17] was over 100 µM each time.
As to `C[n+]1c2ccccc2c(C(=O)NC(CCCN=C(N)N)C(=O)O)c2ccccc21` (stereo unspecified), the TGI in test [1], in [2], in [3], in [4], in [5] and in test [6] was over 100 µM in each case. Moreover, the TGI in test [7], in test [8], in test [9], in [10], in [11] and in test [12] was over 100 µM in each case. The TGI in test [18], in test [13], in test [14], in test [19], in test [16] and in [17] was over 100 µM in each case.
